Measured values from patent US10517889B2, “Modulators of SMAD7 expression” (Ionis Pharmaceuticals, Inc., priority 2017, dated 2019).
Strand notation (5' to 3'): a small letter for the sugar, then the base; units joined by * are phosphorothioate-linked, units joined directly phosphodiester-linked; [ ] holds rarer units or linkages, { } end groups; capitals alone tell only the bases. e = 2'-O-(2-methoxyethyl) (MOE); [5mC] = 5-methylcytosine; d = 2'-deoxy (DNA)

Tested on: human SMAD7 mRNA
Assay: Antisense inhibition of human SMAD7 mRNA expression in Hep3B cells by 5-10-5 MOE gapmers, single concentration, electroporation, RT-PCR (Example 1, Study 1 and 2)
Assay type: cell-based
Settings: Study 2, electroporation with 15,000 nM antisense oligonucleotide, 5-10-5 MOE gapmers targeting SEQ ID NO: 1 and 2
Outline: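 Readout is percent SMAD7 mRNA inhibition versus untreated cells, measured by qRT-PCR (RTS5062) and corrected for total RNA by RIBOGREEN. Oligonucleotide, 5,000 nM or 15,000 nM, was delivered by electroporation into Hep3B cells at 20,000 per well. RNA was collected about 24 h later.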

| Substance | % inhibition of SMAD7 mRNA expression |
| --- | --- |
| 771526 (antisense eG*eT*eT*eT*eG*d[5mC]*dA*dT*dG*dA*dA*dA*dA*dG*d[5mC]*eA*eA*eG*e[5mC]*eA) [compound 771526] | 26% |
| 771527 (antisense eG*eA*eG*eT*eT*dT*dG*d[5mC]*dA*dT*dG*dA*dA*dA*dA*eG*e[5mC]*eA*eA*eG) [compound 771527] | 0% |
| 771532 (antisense eA*eG*eA*eA*eG*dA*dA*dA*dA*d[5mC]*d[5mC]*dA*dA*d[5mC]*d[5mC]*eA*eA*e[5mC]*eA*eA) [compound 771532] | 0% |
| 771534 (antisense eA*eA*e[5mC]*eA*eG*dA*dA*d[5mC]*dA*d[5mC]*dA*dA*dA*d[5mC]*dG*eA*eG*eG*eA*e[5mC]) [compound 771534] | 0% |
| 771535 (antisense eA*eA*e[5mC]*eA*eA*dA*dA*d[5mC]*dA*dG*dA*dA*d[5mC]*dA*d[5mC]*eA*eA*eA*e[5mC]*eG) [compound 771535] | 17% |
| 771540 (antisense eT*e[5mC]*eA*eT*eA*dA*dG*d[5mC]*dT*dA*dT*dT*dT*d[5mC]*dT*e[5mC]*eA*eA*eA*eG) [compound 771540] | 0% |
| 771542 (antisense eA*e[5mC]*eA*eA*eT*dT*d[5mC]*dT*dT*dT*dT*d[5mC]*dA*dT*dA*eA*eG*e[5mC]*eT*eA) [compound 771542] | 0% |
| 771543 (antisense e[5mC]*e[5mC]*e[5mC]*e[5mC]*eA*dA*d[5mC]*dA*dA*dT*dT*d[5mC]*dT*dT*dT*eT*e[5mC]*eA*eT*eA) [compound 771543] | 36% |
| 771548 (antisense eG*eG*eT*eG*eT*d[5mC]*d[5mC]*dT*dG*d[5mC]*d[5mC]*dG*dA*dT*d[5mC]*eA*eT*eA*e[5mC]*e[5mC]) [compound 771548] | 19% |
| 771550 (antisense eT*eG*e[5mC]*eT*eT*d[5mC]*d[5mC]*d[5mC]*d[5mC]*dT*d[5mC]*dT*dT*d[5mC]*d[5mC]*eT*eA*eT*e[5mC]*eA) [compound 771550] | 4% |
| 771551 (antisense eA*eT*eT*eT*e[5mC]*dT*dG*d[5mC]*dT*dT*d[5mC]*d[5mC]*d[5mC]*d[5mC]*dT*e[5mC]*eT*eT*e[5mC]*e[5mC]) [compound 771551] | 18% |
| 771558 (antisense eA*eA*eA*eT*eG*dA*dT*dG*dA*d[5mC]*d[5mC]*dG*d[5mC]*d[5mC]*d[5mC]*e[5mC]*e[5mC]*e[5mC]*eT*eT) [compound 771558] | 7% |
| 771559 (antisense eA*eA*eG*eT*eG*dA*dA*dA*dT*dG*dA*dT*dG*dA*d[5mC]*e[5mC]*eG*e[5mC]*e[5mC]*e[5mC]) [compound 771559] | 49% |
| 771564 (antisense eG*e[5mC]*e[5mC]*eG*e[5mC]*dA*d[5mC]*dA*d[5mC]*dT*d[5mC]*dA*d[5mC]*dA*d[5mC]*eT*e[5mC]*eA*e[5mC]*eA) [compound 771564] | 28% |
| 771566 (antisense eG*eA*e[5mC]*eA*e[5mC]*dA*dA*dA*dA*d[5mC]*dA*dA*dA*dG*dA*eG*e[5mC]*eA*e[5mC]*eG) [compound 771566] | 28% |
| 771567 (antisense eG*eG*eG*eA*e[5mC]*dA*dT*d[5mC]*d[5mC]*dA*dT*dA*dA*dG*dA*eG*eA*e[5mC]*eA*e[5mC]) [compound 771567] | 39% |
| 771575 (antisense eA*e[5mC]*e[5mC]*eG*e[5mC]*dT*dT*dG*dG*dG*dA*d[5mC]*dT*dG*d[5mC]*eA*eA*eA*e[5mC]*e[5mC]) [compound 771575] | 47% |

Same assay, conditions: electroporation with 15,000 nM antisense oligonucleotide (Study 2), 5-10-5 MOE gapmers targeting SEQ ID NO: 1 and 2

| Substance | % Inhibition of SMAD7 mRNA |
| --- | --- |
| 771528 (antisense eA*eA*eA*eG*eA*dG*dT*dT*dT*dG*d[5mC]*dA*dT*dG*dA*eA*eA*eA*eG*e[5mC]) [compound 771528] | 12% |
| 771536 (antisense eA*eG*e[5mC]*eG*eA*dA*dA*d[5mC]*dA*dA*dA*dA*d[5mC]*dA*dG*eA*eA*e[5mC]*eA*e[5mC]) [compound 771536] | 25% |
| 771544 (antisense eA*eA*eA*eA*e[5mC]*d[5mC]*d[5mC]*d[5mC]*d[5mC]*dA*dA*d[5mC]*dA*dA*dT*eT*e[5mC]*eT*eT*eT) [compound 771544] | 16% |
| 771560 (antisense e[5mC]*eT*eG*eA*e[5mC]*dA*dA*dG*dT*dG*dA*dA*dA*dT*dG*eA*eT*eG*eA*e[5mC]) [compound 771560] | 0% |
| 771568 (antisense e[5mC]*eT*eG*e[5mC]*eA*dA*dA*d[5mC]*d[5mC]*dT*d[5mC]*dT*d[5mC]*dT*dG*e[5mC]*eT*eG*eG*eG) [compound 771568] | 26% |

Same assay, conditions: electroporation, 15,000 nM antisense oligonucleotide (Study 2), 5-10-5 MOE gapmers targeting SEQ ID NO: 1 and 2

| Substance | % inhibition of SMAD7 mRNA expression |
| --- | --- |
| 771528 (antisense eA*eA*eA*eG*eA*dG*dT*dT*dT*dG*d[5mC]*dA*dT*dG*dA*eA*eA*eA*eG*e[5mC]) [compound 771528] | 4% |
| 771529 (antisense e[5mC]*eG*eA*e[5mC]*e[5mC]*dA*dA*dA*dG*dA*dG*dT*dT*dT*dG*e[5mC]*eA*eT*eG*eA) [compound 771529] | 0% |
| 771530 (antisense eA*eA*eA*eA*eA*d[5mC]*dG*dA*d[5mC]*d[5mC]*dA*dA*dA*dG*dA*eG*eT*eT*eT*eG) [compound 771530] | 16% |
| 771536 (antisense eA*eG*e[5mC]*eG*eA*dA*dA*d[5mC]*dA*dA*dA*dA*d[5mC]*dA*dG*eA*eA*e[5mC]*eA*e[5mC]) [compound 771536] | 0% |
| 771537 (antisense e[5mC]*eA*eA*eA*eG*dA*dG*d[5mC]*dG*dA*dA*dA*d[5mC]*dA*dA*eA*eA*e[5mC]*eA*eG) [compound 771537] | 16% |
| 771538 (antisense eT*eT*eT*e[5mC]*eT*d[5mC]*dA*dA*dA*dG*dA*dG*d[5mC]*dG*dA*eA*eA*e[5mC]*eA*eA) [compound 771538] | 24% |
| 771544 (antisense eA*eA*eA*eA*e[5mC]*d[5mC]*d[5mC]*d[5mC]*d[5mC]*dA*dA*d[5mC]*dA*dA*dT*eT*e[5mC]*eT*eT*eT) [compound 771544] | 0% |
| 771545 (antisense e[5mC]*e[5mC]*eA*eA*eA*dA*dA*dA*dA*d[5mC]*d[5mC]*d[5mC]*d[5mC]*d[5mC]*dA*eA*e[5mC]*eA*eA*eT) [compound 771545] | 21% |
| 771546 (antisense eT*eA*e[5mC]*e[5mC]*eT*dG*d[5mC]*d[5mC]*d[5mC]*d[5mC]*dT*dT*d[5mC]*dT*dT*e[5mC]*e[5mC]*eA*eA*eA) [compound 771546] | 26% |
| 771553 (antisense eT*eG*eG*eT*eG*d[5mC]*dT*dT*dG*dG*dA*dT*dT*dT*d[5mC]*eT*eG*e[5mC]*eT*eT) [compound 771553] | 38% |
| 771554 (antisense eT*eT*eT*eG*eG*dT*dG*dG*dT*dG*d[5mC]*dT*dT*dG*dG*eA*eT*eT*eT*e[5mC]) [compound 771554] | 20% |
| 771560 (antisense e[5mC]*eT*eG*eA*e[5mC]*dA*dA*dG*dT*dG*dA*dA*dA*dT*dG*eA*eT*eG*eA*e[5mC]) [compound 771560] | 0% |
| 771561 (antisense e[5mC]*eA*e[5mC]*eT*e[5mC]*d[5mC]*dT*dG*dA*d[5mC]*dA*dA*dG*dT*dG*eA*eA*eA*eT*eG) [compound 771561] | 30% |
| 771562 (antisense eA*e[5mC]*eA*e[5mC]*eA*d[5mC]*dA*d[5mC]*dT*d[5mC]*d[5mC]*dT*dG*dA*d[5mC]*eA*eA*eG*eT*eG) [compound 771562] | 30% |
| 771568 (antisense e[5mC]*eT*eG*e[5mC]*eA*dA*dA*d[5mC]*d[5mC]*dT*d[5mC]*dT*d[5mC]*dT*dG*e[5mC]*eT*eG*eG*eG) [compound 771568] | 17% |
| 771569 (antisense eG*eG*eA*e[5mC]*eT*dG*d[5mC]*dA*dA*dA*d[5mC]*d[5mC]*dT*d[5mC]*dT*e[5mC]*eT*eG*e[5mC]*eT) [compound 771569] | 30% |
| 771577 (antisense eT*eG*e[5mC]*e[5mC]*eT*d[5mC]*dT*dG*d[5mC]*d[5mC]*d[5mC]*d[5mC]*dA*d[5mC]*dT*eG*eA*eG*e[5mC]*eG) [compound 771577] | 21% |
| 771578 (antisense e[5mC]*eT*eG*e[5mC]*e[5mC]*dT*d[5mC]*dT*dG*d[5mC]*d[5mC]*d[5mC]*d[5mC]*dA*d[5mC]*eT*eG*eA*eG*e[5mC]) [compound 771578] | 50% |

Same assay, conditions: electroporation, 15,000 nM, approximately 24 hours, relative to untreated control cells, gapmers targeting SEQ ID NO: 1 and 2

| Substance | % inhibition of SMAD7 mRNA expression |
| --- | --- |
| 771533 (antisense e[5mC]*eA*eA*eA*e[5mC]*dG*dA*dG*dG*dA*d[5mC]*dG*dA*dG*dA*eA*eG*eA*eA*eG) [compound 771533] | 2% |
| 771541 (antisense eT*e[5mC]*eT*eT*eT*dT*d[5mC]*dA*dT*dA*dA*dG*d[5mC]*dT*dA*eT*eT*eT*e[5mC]*eT) [compound 771541] | 35% |
| 771549 (antisense e[5mC]*e[5mC]*eT*e[5mC]*eT*dT*d[5mC]*d[5mC]*dT*dA*dT*d[5mC]*dA*dG*dG*eG*eT*eG*eT*e[5mC]) [compound 771549] | 49% |
| 771557 (antisense eA*eT*eG*eA*e[5mC]*d[5mC]*dG*d[5mC]*d[5mC]*d[5mC]*d[5mC]*d[5mC]*d[5mC]*dT*dT*e[5mC]*eA*eT*eA*e[5mC]) [compound 771557] | 19% |
| 771565 (antisense e[5mC]*eT*eG*e[5mC]*e[5mC]*dG*d[5mC]*dT*d[5mC]*d[5mC]*dT*dG*d[5mC]*dA*d[5mC]*eA*e[5mC]*eG*e[5mC]*eG) [compound 771565] | 55% |
